Patent US12357601B2, “Composition for inhibiting growth of bacterium having menaquinone synthesis pathway through futalosine or futalosine derivative” (NOSTER INC., priority 2017, dated 2025)

Key:
[1] = test system: Helicobacter suis TKY strain or SNTW101 strain; assay: Proliferation inhibitory effect (in vivo) of HYA on Helicobacter suis, real-time PCR quantification, 2 weeks after infection; parameters: species or system C57BL/6 female mouse; details: 200 μM in water from one week before infection; 2 weeks later
Protocol: A 5-week-old C57BL/6 female mouse was orally infected 3 times with Helicobacter pylori SS1 strain or TN2GF4 strain (1-5×10^8 CFU) every other day and dissected at 2 weeks from the final infection day, and the number of bacteria in the gastric mucosa was counted. Water added with HYA or linoleic acid (200 μM) was given to the mice from 1 week before infection (FIG. 4-1 A: SS1 strain, FIG. 4-2 B: TN2GF4 strain). A 5-week-old C57BL/6 female mouse was orally infected only once with a stomach suspension of Helicobacter suis TKY strain or SNTW101 strain-infected mouse and dissected 2 weeks later, and the number of bacteria in the gastric mucosa was counted. Water added with HYA (200 μM) was given to the mouse from one week before the infection (FIG. 4-3 C). […]
DNA was prepared from a part of the stomach tissue by using DNeasy Blood & Tissue Kit (Qiagen) and real-time PCR (model: CFX96 (Bio-Rad)) was performed. As the primer for Helicobacter suis quantification, the following was used by reference to Diagn. […]
The following were used as the primers for β-actin quantification of the mouse by reference to J. Clin. Microbiol. […]
For quantification by real-time PCR, iQ™ SYBR Green Supermix was used. […]
Thereafter, the temperature was increased by 0.5° C. every seconds from 65° C. to 95° C. and the fluorescence was measured. […]

[2] = test system: Helicobacter pylori SS1 strain, TN2GF4 strain, ATCC43579 strain, NCTC11637 strain, TY281 strain, TY1345 strain; assay: Proliferation inhibitory effect (in vitro), static culture 3 days, colony count; format: cell-based; details: fatty acid 200 μM or 1000 μM, 3 days; six strains; compared with linoleic acid
Protocol: Helicobacter pylori SS1 strain, TN2GF4 strain, ATCC43579 strain, NCTC11637 strain, TY281 strain, TY1345 strain were each inoculated to a 6-well plate containing 3 mL of a liquid medium (Brucella broth added with 10% FCS), and fatty acid (200 μM or 1000 μM) and menaquinone (MK-4) 100 μg/mL were added. After static culture for 3 days at temperature 37° C., microaerobic conditions (5% 02, 10% 002, 85% N2), the culture medium was applied on a Helicobacter agar plate, cultured for 3 days and the resulting colonies were counted (FIG. 1-1 A: SS1 strain, FIG. 1-2 B: TN2GF4 strain, FIG. 1-3 C: ATCC43579 strain, FIG. 1-4 D: NCTC11637 strain, FIG. 1-5 E: TY281 strain, FIG. 1-6 F: TY1345 strain. Item C: control (no addition), Item 1: HYA addition, Item 2: HYA and menaquinone addition, Item 3: linoleic acid addition, Item 4: linoleic acid and menaquinone addition).

[3] = test system: Ki-67 positive cells; assay: Gastric MALT lymphoma model: Ki-67 positive cells in lymphoid follicle (immunostaining); format: in vivo, C57BL/6 female mouse; details: 200 μM in water; 6 months after infection with Helicobacter suis TKY strain
Protocol: Helicobacter suis is suspected to be the cause of the onset of gastric MALT lymphoma. A 5-week-old C57BL/6 female mouse was orally infected only once with a stomach suspension of Helicobacter suis TKY strain-infected mouse and dissected 6 months after the infection, and the number of bacteria in the gastric mucosa was counted according to the method described in Example 5. Water added with HYA (200 μM) was given to the mouse from one week before the infection.
Ki-67 is known as a marker for cell proliferation and cell cycle. Proliferated cells in a tumor tissue were detected by immunostaining with anti-Ki-67 antibody. A part of the stomach was fixed with 10% neutral formalin buffer to prepare a paraffin block, serial sections were cut out using a microtome and Hematoxylin Eosin (HE) staining was performed. Ki-67 (Clone SP6) rabbit monoclonal antibody (Thermo Fisher Scientific Inc.) diluted 1:300 was used as a dilution antibody, Histofine Simple Stain mouse MAX-PO® (NICHIREI BIOSCIENCES INC., Code: 414341) DAB staining (DAKO Inc.) was used as a secondary antibody, and Hematoxylin was used for comparison staining. As the negative control, rabbit IgG antibody (Code No. X 0936 Lot 050 (DAKO Inc.)) was used. […]

[4] = test system: Helicobacter pylori SS1 strain or TN2GF4 strain; assay: Proliferation inhibitory effect (in vivo) of HYA on Helicobacter pylori, number of bacteria in gastric mucosa; parameters: species or system C57BL/6 female mouse; details: 200 μM in water from 1 week before infection; 2 weeks from final infection
Protocol: A 5-week-old C57BL/6 female mouse was orally infected 3 times with Helicobacter pylori SS1 strain or TN2GF4 strain (1-5×10^8 CFU) every other day and dissected at 2 weeks from the final infection day, and the number of bacteria in the gastric mucosa was counted. Water added with HYA or linoleic acid (200 μM) was given to the mice from 1 week before infection (FIG. 4-1 A: SS1 strain, FIG. 4-2 B: TN2GF4 strain). A 5-week-old C57BL/6 female mouse was orally infected only once with a stomach suspension of Helicobacter suis TKY strain or SNTW101 strain-infected mouse and dissected 2 weeks later, and the number of bacteria in the gastric mucosa was counted. Water added with HYA (200 μM) was given to the mouse from one week before the infection (FIG. 4-3 C). […] The measurement of the number of Helicobacter suis bacteria in the stomach of the infected mouse was performed as follows.

CCCCC/C=C\CC(O)CCCCCCCCC(=O)O (stereo not drawn) [HYA, 10-hydroxy-cis-12-octadecenoic acid]
proliferation of Helicobacter suis TKY strain, SNTW101 strain (number of bacteria in gastric mucosa) [1]: inhibited proliferation | proliferation of Helicobacter pylori (colony count) [2]: suppressed proliferation | increase in the number of Ki-67 positive cells, compared to the non-administration group [3]: significantly suppressed | proliferation of Helicobacter pylori SS1 strain, TN2GF4 strain (number of bacteria in gastric mucosa) [4]: inhibited proliferation
